The structures appear in SMILES notation.

The assay concerns 4 PI3K isoforms (Human recombinant GST-PI3K). The assay can be described thus: PI3K scintillation proximity assay, best IC50 obtained with the four isoforms (alpha, beta, delta, gamma). Format: biochemical. The conditions noted are these: best IC50 obtained with the four isoforms of PI3K; read-out: Best potency measured on the 4 PI3K isoforms. In general terms: Scintillation proximity formats need no separation of bound from free tracer.
For `O=C(c1nn([C@H]2CCCN(CCN3CCC(F)CC3)C2)c2c1CS(=O)(=O)c1ccccc1-2)N1CCOCC1` (single isomer, unassigned) [Example 363, 1-{1-[2-(4-fluoropiperidin-1-yl)ethyl]piperidin-3-yl}-3-(morpholin-4-ylcarbonyl)-1,4-dihydrothiochromeno[4,3-c]pyrazole 5,5-dioxide], the IC50 amounted to 25 nM.
For the compound `COCCNCc1ccc(-n2nc(C(=O)N3CCOCC3)c3c2-c2ccccc2S(=O)(=O)C3)cc1` [Example 431, 2-Methoxy-N-{4-[3-(morpholin-4-ylcarbonyl)-5,5-dioxidothiochromeno[4,3-c]pyrazol-1(4H)-yl]benzyl}ethanamine], the IC50 was 164 nM.
Regarding `Cc1ccncc1-n1nc(C(=O)N2CCOCC2)c2c1-c1ccccc1S(=O)(=O)C2` [Example 31, 1-(4-methylpyridin-3-yl)-3-(morpholin-4-ylcarbonyl)-1,4-dihydrothiochromeno[4,3-c]pyrazole 5,5-dioxide], the IC50 was found to be 4040 nM.
With `O=C(c1nn([C@H]2CCCN(CCn3ccnc3)C2)c2c1CS(=O)(=O)c1ccccc1-2)N1CCOCC1` (single isomer, unassigned) [Example 412, 1-{1-[2-(1H-imidazol-1-yl)ethyl]piperidin-3-yl}-3-(morpholin-4-ylcarbonyl)-1,4-dihydrothiochromeno[4,3-c]pyrazole 5,5-dioxide] the figure was 5600 nM; with `O=C(c1nn(C2CCC(O)CC2)c2c1CS(=O)(=O)c1ccccc1-2)N1CCOCC1` (stereo not shown) [Example 98, 4-[3-(Morpholin-4-ylcarbonyl)-5,5-dioxidothiochromeno[4,3-c]pyrazol-1(4H)-yl]cyclohexanol], 512 nM.
With `CN(C)c1ccc2c(c1)S(=O)(=O)Cc1c(C(=O)N3CCOCC3)nn(-c3ccccc3)c1-2` [Example 152, N,N-Dimethyl-3-(morpholin-4-ylcarbonyl)-1-phenyl-1,4-dihydrothiochromeno[4,3-c]pyrazol-7-amine 5,5-dioxide] the figure was 5020 nM; with `Cn1nc(C(=O)N2CCOCC2)c2c1-c1cc(Br)ccc1S(=O)(=O)C2` [Example 63], 1040 nM; with `COc1ccc2c(c1)S(=O)(=O)Cc1c(C(=O)N3CCOCC3)nn([C@H]3CCCN(CC4CCOC4)C3)c1-2` (stereo in doubt) [Example 395, 7-methoxy-3-(morpholin-4-ylcarbonyl)-1-[1-(tetrahydrofuran-3-ylmethyl)piperidin-3-yl]-1,4-dihydrothiochromeno[4,3-c]pyrazole 5,5-dioxide], 44 nM.
With `O=C(c1nn(C2CCN(C3CCOCC3)C2)c2c1CS(=O)(=O)c1ccccc1-2)N1CCOCC1` (stereo not shown) [Example 300, 3-(Morpholin-4-ylcarbonyl)-1-[1-(tetrahydro-2H-pyran-4-yl)pyrrolidin-3-yl]-1,4-dihydrothiochromeno[4,3-c]pyrazole 5,5-dioxide] the figure was 77 nM; with `N#Cc1cccc(-n2nc(C(=O)N3CCOCC3)c3c2-c2ccccc2S(=O)(=O)C3)c1` [Example 68], 376 nM; with `NC(=O)c1cccc2c1S(=O)(=O)Cc1c(C(=O)N3CCOCC3)nn(-c3ccccc3)c1-2` [Example 250, 3-(Morpholin-4-ylcarbonyl)-1-phenyl-1,4-dihydrothiochromeno[4,3-c]pyrazole-6-carboxamide 5,5-dioxide], 7900 nM.
`O=C(c1nn([C@H]2CCCN(CCC3CCOCC3)C2)c2c1CS(=O)(=O)c1c(F)cccc1-2)N1CCOCC1` (single isomer, unassigned) [Example 344, 6-fluoro-3-(morpholin-4-ylcarbonyl)-1-{1-[2-(tetrahydro-2H-pyran-4-yl)ethyl]piperidin-3-yl}-1,4-dihydrothiochromeno[4,3-c]pyrazole 5,5-dioxide]: the IC50 stood at 6 nM.
As for `COC1CCN(CCN2CCC[C@H](n3nc(C(=O)N4CCOCC4)c4c3-c3ccccc3S(=O)(=O)C4)C2)C1` (stereo in doubt) [Example 439, 1-{1-[2-(3-methoxypyrrolidin-1-yl)ethyl]piperidin-3-yl}-3-(morpholin-4-ylcarbonyl)-1,4-dihydrothiochromeno[4,3-c]pyrazole 5,5-dioxide], the figure is 25 nM.

(Values after patent US9073940B2, “Tricyclic pyrazol amine derivatives” (MERCK SERONO SA, priority 2009, dated 2015).)
